The values that follow come from ChEMBL document CHEMBL3244266, “Potential antiarthritic agents. 2. Benzoylacetonitriles and beta-aminocinnamonitriles” (J Med Chem, 1979).

In series [1] the test system is Rattus norvegicus. Put plainly: Antiinflammatory activity against adjuvant-induced arthritis rat model assessed as inhibition of swelling at 50 mg/kg, po measured on day 14 (reference value: 0%). Format: functional. Conditions: 336 h.
Series [2] is filed under the species Cavia porcellus. The series is described as follows: Antiinflammatory activity against UV-induced erythema in guinea pig. The series is classed as functional, organism-based.
For series [3], the system named is Rattus norvegicus. The series is described as follows: Ulcerogenicity in rat at 800 mg/kg administered daily. The series is classed as toxicity, organism-based. On the set-up: dose 800 mg/kg. As to conditions: in vivo.
In series [4] the test system is Rattus norvegicus. The series is described as follows: Antiinflammatory activity against carrageenin-induced edema in rat. Format: functional, organism-based. In general terms: The carrageenan paw model is a standard test of acute inflammation.
In series [5] the test system is Rattus norvegicus. Put plainly: Antiinflammatory activity against adjuvant-induced arthritis rat model assessed as inhibition of swelling at 25 mg/kg, po measured on day 21 (reference value: 0%). Format: functional. As to conditions: 504 h.
The test system of series [6] is Rattus norvegicus. The series is described as follows: Antiinflammatory activity against adjuvant-induced arthritis rat model assessed as inhibition of swelling at 50 mg/kg, po measured on day 21 (reference value: 0%). Format: functional. Conditions: 504 h.
Series [7] relates to Rattus norvegicus. Put plainly: Antiinflammatory activity against adjuvant-induced arthritis rat model assessed as inhibition of swelling at 100 mg/kg, po measured on day 14 (reference value: 0%). Format: functional. Conditions: 336 h.
The subject of series [8] is Rattus norvegicus. The series is described as follows: Antiinflammatory activity against adjuvant-induced arthritis rat model assessed as inhibition of swelling at 100 mg/kg, po measured on day 21 (reference value: 0%). Format: functional. Conditions: 504 h.
Series [9] relates to Rattus norvegicus. The series is described as follows: Antiinflammatory activity against adjuvant-induced arthritis rat model assessed as inhibition of swelling at 25 mg/kg, po measured on day 14 (reference value: 0%). The series is classed as functional. As to conditions: 336 h.
The species entered for series [10] is Rattus norvegicus. Put plainly: Antiinflammatory activity against adjuvant-induced arthritis in rat assessed as inhibition of swelling. Format: functional, organism-based.
Series [11] relates to Rattus norvegicus. Put plainly: Antiinflammatory activity against adjuvant-induced arthritis rat model assessed as inhibition of swelling at 200 mg/kg, po measured on day 14 (reference value: 0%). Format: functional. As to conditions: 336 h.
The subject of series [12] is Rattus norvegicus. The series is described as follows: Antiinflammatory activity against adjuvant-induced arthritis rat model assessed as inhibition of swelling at 200 mg/kg, po measured on day 21 (reference value: 0%). The series is classed as functional. As to conditions: 504 h.
Series [13] can be described thus: Drug recovery in rat urine assessed as total radioactivity at 50 mg/kg, po measured after 24 hrs by TLC/HPLC analysis. Format: ADME, organism-based. Conditions: in vivo. On the set-up: dose 50 mg/kg, route oral.
In the next series the test system is Plasma. Put plainly: Drug recovery in rat plasma assessed as total radioactivity at 50 mg/kg, po measured over 7-day period by TLC/HPLC analysis. Format: ADME, organism-based. On the set-up: dose 50 mg/kg, route oral. Conditions: in vivo.
The species entered for series [14] is Cavia porcellus. The series is described as follows: Inhibition of prostaglandin synthetase in guinea pig lung assessed as net production of prostaglandin-like activity. Conditions: tested as the 14C-labelled form.
Series [15] relates to Rattus norvegicus. The series is described as follows: Antiinflammatory activity against adjuvant-induced arthritis rat model assessed as inhibition of swelling at 2 mg/kg, po measured on day 14 (reference value: 0%). The series is classed as functional. As to conditions: 336 h.
Series [16] deals with Rattus norvegicus. Put plainly: Antiinflammatory activity against adjuvant-induced arthritis rat model assessed as inhibition of swelling at 0.5 mg/kg, po measured on day 14 (reference value: 0%). Format: functional. As to conditions: 336 h.
Series [17] concerns Rattus norvegicus. The series is described as follows: Antiinflammatory activity against adjuvant-induced arthritis rat model assessed as inhibition of swelling at 0.5 mg/kg, po measured on day 21 (reference value: 0%). Format: functional. Conditions: 504 h.
The subject of series [18] is Rattus norvegicus. Put plainly: Antiinflammatory activity against adjuvant-induced arthritis rat model assessed as inhibition of swelling at 2 mg/kg, po measured on day 21 (reference value: 0%). The series is classed as functional. Conditions: 504 h.
The test system of series [19] is Rattus norvegicus. Put plainly: Antiinflammatory activity against adjuvant-induced arthritis rat model assessed as inhibition of swelling at 1 mg/kg, po measured on day 14 (reference value: 0%). The series is classed as functional. Conditions: 336 h.
Series [20] deals with Rattus norvegicus. The series is described as follows: Antiinflammatory activity against adjuvant-induced arthritis rat model assessed as inhibition of swelling at 1 mg/kg, po measured on day 21 (reference value: 0%). As to conditions: 504 h. Format: functional.
[21] abbreviates: tested as the 14C-labelled form.

The structures appear in SMILES notation. Calls of active or inactive are those of the source. The calls are words filed in the database; no cut-off is given here.

As usually defined, the inhibition in vivo is the drop in the measured response relative to a control, in per cent.

Consider `N#C/C=C(\N)c1ccsc1`, for which the inhibition in vivo at 50 mg/kg with Rattus norvegicus [1] stood at 48%; in the series with Rattus norvegicus [6], 27%. The result in the series listed under Cavia porcellus [2] and in the series on Rattus norvegicus [4] was inactive. The Activity result in the series on Rattus norvegicus [3] is “Non-toxic”. For the same compound, the values for the inhibition in vivo at 25 mg/kg in the series with Rattus norvegicus [5] and with Rattus norvegicus [9] were 20% and 37%, respectively. The inhibition in vivo at 100 mg/kg with Rattus norvegicus [7] was 58%; in the series on Rattus norvegicus [8], 33%.

In the case of `N#C/C=C(\N)c1cccc(F)c1`, in the series filed under Rattus norvegicus [10], the outcome was Active.

Take `N#C/C=C(\N)c1ccccc1`: the figures for the inhibition in vivo at 50 mg/kg in the series with Rattus norvegicus [1] and in the series on Rattus norvegicus [6] were 58% and 52%, respectively. Further, the result in the series listed under Cavia porcellus [2] and in the series on Rattus norvegicus [4] was Active. The results for the inhibition in vivo at 25 mg/kg in the series on Rattus norvegicus [5] and with Rattus norvegicus [9] were 25% and 39%, respectively. Further, the inhibition in vivo at 100 mg/kg in the series with Rattus norvegicus [7] turned out to be 65%; in the series on Rattus norvegicus [8] it was 54%.

For the compound `N#CCC(=O)c1cccs1`, the inhibition in vivo at 50 mg/kg came to 46% in the series with Rattus norvegicus [1] and 18% in the series on Rattus norvegicus [6]. In addition, the outcome in the series listed under Cavia porcellus [2] and with Rattus norvegicus [4] was inactive. Also, the Activity entry in the series on Rattus norvegicus [3] is “Non-toxic”. The inhibition in vivo at 200 mg/kg in the series on Rattus norvegicus [11] amounted to 72%; in the series on Rattus norvegicus [12] it was 29%. Further, the figures for the inhibition in vivo at 100 mg/kg in the series on Rattus norvegicus [7] and in the series with Rattus norvegicus [8] were 58% and 42%, respectively.

As to `N#CCC(=O)c1ccsc1`, the inhibition in vivo at 50 mg/kg in the series on Rattus norvegicus [1] was determined as 55%; in the series with Rattus norvegicus [6], 40%. Also, the outcome in the series filed under Cavia porcellus [2] and in the series with Rattus norvegicus [4] was inactive. Moreover, in the series on Rattus norvegicus [3], the Activity result is “Non-toxic”. Also, the inhibition in vivo at 25 mg/kg with Rattus norvegicus [5] was determined as 31%; with Rattus norvegicus [9], 52%. Moreover, the figures for the inhibition in vivo at 100 mg/kg in the series on Rattus norvegicus [7] and in the series with Rattus norvegicus [8] were 46% and 29%, respectively.

On to `N#C/C=C(\N)c1ccc(F)cc1`, for which the inhibition in vivo at 50 mg/kg in the series on Rattus norvegicus [1] was 43%; in the series on Rattus norvegicus [6], 25%. Also, the outcome in the series filed under Cavia porcellus [2] and in the series with Rattus norvegicus [4] was inactive. The Activity result with Rattus norvegicus [3] was “Non-toxic”. The inhibition in vivo at 25 mg/kg in the series on Rattus norvegicus [5] was found to be 14%; in the series on Rattus norvegicus [9] it was 26%. In addition, the results for the inhibition in vivo at 100 mg/kg with Rattus norvegicus [7] and in the series with Rattus norvegicus [8] were 53% and 29%, respectively.

Take `O=C(O)C(O)C(O)c1ccccc1` (centres undefined): the result with Rattus norvegicus [4] (setting [21]) and in the series listed under Rattus norvegicus [10] (setting [21]) was inactive.

For the compound `N#CC[14C](=O)c1ccccc1`, the Drug recovery in [13] was 81.7%; in the series on Plasma, 93.3%.

Regarding `N#CCC(=O)c1ccccc1`, the inhibition in vivo at 50 mg/kg in the series with Rattus norvegicus [1] was determined as 51%; with Rattus norvegicus [6], 42%. The result in the series filed under Cavia porcellus [2] and in the series on Rattus norvegicus [4] was inactive. In addition, the Activity entry in the series with Rattus norvegicus [3] is recorded as “Non-toxic”. In the series listed under Cavia porcellus [14], the inhibition result was “Active”. Moreover, the inhibition in vivo at 25 mg/kg was 33% with Rattus norvegicus [5] and 54% in the series with Rattus norvegicus [9]. Also, the inhibition in vivo at 100 mg/kg with Rattus norvegicus [7] is 63%; with Rattus norvegicus [8], 48%.

Consider `N#CCC(=O)c1cccc(F)c1`, for which, in the series listed under Rattus norvegicus [10], the result was Active.

In the case of `O=C(O)CNC(=O)c1ccccc1`, the result in the series on Rattus norvegicus [4] (setting [21]) and in the series filed under Rattus norvegicus [10] (setting [21]) was inactive.

Take `N#CCC(=O)c1ccccc1F`: the inhibition in vivo at 50 mg/kg was determined as 51% in the series on Rattus norvegicus [1] and 42% with Rattus norvegicus [6]. In addition, the result in the series listed under Cavia porcellus [2] and in the series with Rattus norvegicus [4] was inactive. Also, in the series on Rattus norvegicus [3], the Activity entry is “Non-toxic”. Besides, the inhibition in vivo at 25 mg/kg in the series with Rattus norvegicus [5] came to 33%; in the series with Rattus norvegicus [9], 54%. For the same compound, the inhibition in vivo at 100 mg/kg with Rattus norvegicus [7] was determined as 63%; with Rattus norvegicus [8], 48%.

For `COc1ccc2c(c1)c(CC(=O)O)c(C)n2C(=O)c1ccc(Cl)cc1` [INDOMETHACIN], the inhibition in vivo at 2 mg/kg was found to be 68% with Rattus norvegicus [15] and 24% with Rattus norvegicus [18]. Besides, the inhibition in vivo at 0.5 mg/kg with Rattus norvegicus [16] came out at 40%; in the series with Rattus norvegicus [17], 20%. The inhibition in vivo at 1 mg/kg was determined as 46% in the series with Rattus norvegicus [19] and 19% with Rattus norvegicus [20].

Regarding `O=C(O)CC(=O)c1ccccc1`, the result with Rattus norvegicus [4] (setting [21]) and in the series listed under Rattus norvegicus [10] (setting [21]) was inactive.

As for `N#CCC(=O)c1ccc(F)cc1`, the inhibition in vivo at 50 mg/kg with Rattus norvegicus [1] was determined as 56%; in the series with Rattus norvegicus [6] it was 37%. The result in the series listed under Cavia porcellus [2] and in the series on Rattus norvegicus [4] was inactive. Moreover, the Activity entry with Rattus norvegicus [3] is reported as “Non-toxic”. In addition, the inhibition in vivo at 25 mg/kg is 17% with Rattus norvegicus [5] and 33% in the series on Rattus norvegicus [9]. Moreover, the inhibition in vivo at 100 mg/kg in the series on Rattus norvegicus [7] was found to be 46%; with Rattus norvegicus [8], 32%.

As to `N#CCC(O)c1ccccc1` (centres undefined), the result in the series on Rattus norvegicus [4] (setting [21]) and in the series listed under Rattus norvegicus [10] (setting [21]) was inactive.

As for `N#C/C=C(\N)c1cccs1`, the inhibition in vivo at 50 mg/kg in the series on Rattus norvegicus [1] came to 44%; in the series on Rattus norvegicus [6] it was 23%. Besides, the outcome in the series filed under Cavia porcellus [2] and in the series on Rattus norvegicus [4] was inactive. Moreover, the Activity entry in the series on Rattus norvegicus [3] is listed as “Non-toxic”. The inhibition in vivo at 25 mg/kg in the series on Rattus norvegicus [5] turned out to be 10%; with Rattus norvegicus [9] it was 35%. Further, the figures for the inhibition in vivo at 100 mg/kg in the series on Rattus norvegicus [7] and with Rattus norvegicus [8] were 49% and 27%, respectively.
